Laboratory results taken from patent US20080299123A1, “TREATMENT OF CHEMOTHERAPY- OR RADIOTHERAPY-RESISTANT TUMORS” (Deutsches Krebsforschungszentrum Stiftung des offentlichen …, priority 2006, published 2008).
Entries after “also recorded” stand apart in the source; their conditions may differ.

How the values were obtained:
[1] = tested on: HEK293-hL1wt cells; test: Haptotactic cell migration on fibronectin, HEK293-hL1wt; type: cell-based, human; conditions: MEK inhibitor at 20 μM
Procedure: (A) L1 processing and cleavage in transfected HEK293 cells. The cell lysates were analyzed by Western blot with pcyt-L1 recognizing the cytoplasmic portion of L1. The nomenclature of L1-cleavage fragments is according to a previous publication (Mechtersheimer et al, 2001). (B) ELISA analysis. Soluble L1 levels in the medium of HEK293-hL1wt or HEK293-hL1mutTS cells treated with or without PMA stimulation for 1 h at 37° C. was analyzed. Lysates from both cell lines were used as positive controls. (C) Stimulation of cell migration on fibronectin by recombinant L1-Fc. The fusion protein was added at the final concentration of 0.6 μg/ml. […] (E) Phosphorylation of ERK1/2, FAK, PAK 1 and Src was analyzed in HEK293, HEK293-hL1wt and HEK293-hL1mutTS cells grown in serum. […] Labelled proteins were detected by autoradiography.
(A) HEK293 cells or HEK293-hL1wt cells were transfected transiently with plasmids (10 μg DNA) encoding hL1mut, dominant-negative ADAM10 (ADAM10-DN) or empty pcDNA3 vector. […] 48 h after transfection, cells were analyzed for haptotactic cell migration on fibronectin. […] 48 h after transduction with hL1wt or hL1mutTS adenovirus or YFP-TM adenovirus for control, KS cells or the L1 positive ovarian carcinoma cells OVMz, SKOV3ip and MO68 were analyzed for haptotactic cell migration on fibronectin as described in the legend to FIG. 1. […]

[2] = tested on: m130 cells; test: Long-term cisplatin treatment of m130 cells; type: cell-based
Procedure: (A) Light microscopy of cisplatin treated and no-treated m130 cells. Note the more elongated morphology after treatment for 3 weeks. The bar represents 10 μm. (B) FACS analysis of cisplatin treated m130 cells with mAb L1-11A against human L1-CAM. The analysis was carried out as described in FIG. 1. (C) Western blot analysis of cell lysate from cisplatin treated on non-treated m130 cells. (D) FACS analysis of cisplatin treated SW707 colon carcinoma cells with mAb L1-11A against human L1-CAM.
We studied whether long-term cisplatin treatment of L1-negative m130 cells would augment L1 expression. M130 cells were treated cells with increasing amounts of cisplatin over a time period of 3 weeks (10 μM first week, 15 μM second week, 20 μM third week).

[3] = tested on: HEK293 cells; test: Induction of apoptosis, Nicoletti staining, in HEK293 cells; type: cell-based, human; conditions: L1-negative cells; cisplatin 17 μM
Procedure: (§1) Cells (1×10^5 cells per well) were cultured in duplicate in 6 well culture plates and, after washing once with PBS, incubated for the indicated timepoints with or without apoptotic stimuli in serum-free medium. Staurosporine (2 μM), C2-ceramide (40 μM) or cisplatin (17 μM) were used as apoptotic reagents. For hypoxia studies, cells were incubated for different time points under hypoxic conditions (1% O2) using a Reming Bioinstruments chamber and oxygen regulator (Reming Bioinstruments, Redfield, N.Y.).
(§2) For quantification of DNA fragmentation, supernatants were centrifuged at 200×g. The cell pellet was washed once in PBS (pH 7.4) and lysed in a hypotonic lysis buffer (0.1% sodium citrate, 0.1% Triton X-100, 50 μg/ml propidiumiodite) at 4° C. overnight. The nuclei were then analyzed for DNA content by flow cytometry. The staining of cells for flow cytometry with mAbs and PE-conjugated secondary antibodies has been described. Cells were analysed with a FACScan using Cellquest or FlowJo software from Becton Dickinson (Heidelberg, Germany).

[4] = tested on: HEK293-hL1 cells; test: Induction of apoptosis, Nicoletti staining, in HEK293-hL1 cells; type: cell-based, human; conditions: L1 positive cells; cisplatin 17 μM
Procedure: as §1, §2

[5] = tested on: OVMz; conditions: L1 high expressing cell line OVMz; previous work [29]; read-out: IC50 for cisplatin; cited from earlier work
[6] = tested on: m130; conditions: L1 negative cell line m130; previous work [29]; read-out: IC50 for cisplatin; cited from earlier work
[7] = tested on: L1; test: siRNA-mediated knockdown of L1 in OVMz cells (FACS, Western blot); type: cell-based, human; conditions: 48 hours after transfection
Procedure: (A) OVMz cells were transfected with L1-specific siRNA or control siRNA. After 48 hrs, cells were stained with mAb L1-11A to L1 followed by PE-conjugated anti-mouse IgG antibody and subjected to FACS analysis. (B) Cell lysates were analyzed by Western blot analysis using antibodies to the L1 ectodomain (mAb L1-11A) or the cytoplasmic portion (pcytL1). The L1-32 fragment is the ADAM10-mediated ectodomain cleavage fragment.
as §2
(§3) SDS-PAGE under reducing conditions and transfer of separated proteins to Immobilon membranes using semi-dry blotting was described before. […] Eluted fractions were neutralized and an aliquot of the samples was analyzed by SDS-PAGE. […]
Transfection of siRNAs was described before. […] Cells were transfected with annealed siRNAs using Oligofectamine (Life Technologies) and analyzed after the indicated time points.

[8] = tested on: OVMz cells; test: Apoptosis by Nicoletti staining in siRNA transfected OVMz cells; type: cell-based; conditions: compared to control siRNA treated cells
Procedure: as §1, §2
(§4) Transfection of siRNAs was described before. L1 (5′-AGGGAUGG-UGUCCACCUUCAAAUU-3′) siRNA (SEQ ID NO: 1) was synthesized by MWG-Biotech (Ebersberg, Germany). Cells were transfected with annealed siRNAs using Oligofectamine (Life Technologies) and analyzed after the indicated time points.

[9] = tested on: ERK and FAK phosphorylation; test: Phosphorylation of ERK and FAK in L1-depleted OVMz cells; type: cell-based
Procedure: (C) Phosphorylation of ERK1/2, FAK, and PAK 1 was analyzed in L1-siRNA depleted cell. (D and E) analysis of apoptosis by Nicoletti staining.
(§5) SDS-PAGE under reducing conditions and transfer of separated proteins to Immobilon membranes using semi-dry blotting was described before. After blocking with 5% skim milk in TBS, the blots were developed with the respective primary antibody followed by peroxidase conjugated secondary antibody and ECL detection. The isolation and characterization of soluble L1 from ascites fluid was described before. Briefly, the vesicle cleared ascites fluid from ovarian carcinoma patients was adsorbed to Sepharoselinked mAb L1-11A and bound L1 was eluted with 0.1 M Glycin/HCl buffer pH 2.8. Eluted fractions were neutralized and an aliquot of the samples was analyzed by SDS-PAGE. Cell pellets were lysed in lysis buffer (20 mM Tris/HCl pH 8.0 containing 1% Triton X-100, 150 mM NaCl, 1 mM PMSF), cleared by centrifugation and mixed with two fold-concentrated reducing SDS-sample buffer.
as §4

[10] = tested on: HEK293-hL1 cells; test: Soluble L1 rescue from staurosporine induced apoptosis, HEK293-hL1; type: cell-based, human; conditions: staurosporine 12 hours, purified soluble L1 10 μg/ml
Procedure: (§6) (A) HEK293 and HEK293-hL1 cells were treated with staurosporine for the indicated length of time in the presence or absence of purified soluble L1 (10 μg/ml). Cell survival was determined by Nicoletti staining. (B) Analysis of FAK phosphorylation in HEK293 cells after the addition of soluble L1.
as §1
(§7) For quantification of DNA fragmentation, supernatants were centrifuged at 200×g. […] The nuclei were then analyzed for DNA content by flow cytometry. […] Cells were analysed with a FACScan using Cellquest or FlowJo software from Becton Dickinson (Heidelberg, Germany).
as §3

[11] = tested on: HEK293 cells; test: Soluble L1 rescue from staurosporine induced apoptosis, HEK293; type: cell-based, human; conditions: staurosporine 12 hours, purified soluble L1 10 μg/ml
Procedure: as §6, §1, §7, §3

[12] = tested on: FAK phosphorylation; test: FAK phosphorylation in HEK293 cells after addition of soluble L1; type: cell-based, human; conditions: addition of soluble L1 to HEK293 cells
Procedure: as §6, §5

In the case of COc1cccc(-c2cc(=O)c3ccccc3o2)c1N [PD59098], the cell migration [1] is reported as “Inhibition of cell migration was also observed”.

With N.N.[Cl][Pt][Cl] [cisplatin, cis-Diammineplatinum(II) dichloride] the “expression of L1” value ([2]; cisplatin 3 weeks (10, 15, 20 μM), FACS and Western Blot) was “strongly enhanced”, the cell proliferation ([2]; long-term cisplatin treatment, data not shown) was “clearly decreased cell proliferation” and the “cells survived the treatment with cisplatin” value [3] was 40%. The “cells survived the treatment with cisplatin” value [4] was “Approximately 70%”, the IC50 [5] was > 14 µM and the IC50 [6] was 7 µM.

For “L1-specific siRNA: L1 siRNA 5′-AGGGAUGG-UGUCCACCUUCAAAUU-3′ (SEQ ID NO: 1), synthesized by MWG-Biotech”, the “L1 expression at the cell surface” value [7] was “downregulation of L1 expression at the cell surface”, the “sensitivity to apoptosis induced by cisplatin or staurosporine” value [8] was “significantly enhanced” and the “phosphorylation of ERK and FAK” value [9] was “no significant reduction”.

B1: soluble L1: soluble L1 ectodomain isolated from ascites fluid of ovarian carcinoma patients (protein, UniProt P32004 20-1120, looked up)
extracellular domain: IQIPEEYEGHHVMEPPVITEQSPRRLVVFPTDDISLKCEASGKPEVQFRWTRDGVHFKPKEELGVTVYQSPHSGSFTITGNNSNFAQRFQGIYRCFASNKLGTAMSHEIRLMAEGAPKWPKETVKPVEVEEGESVVLPCNPPPSAEPLRIYWMNSKILHIKQDERVTMGQNGNLYFANVLTSDNHSDYICHAHFPGTRTIIQKEPIDLRVKATNSMIDRKPRLLFPTNSSSHLVALQGQPLVLECIAEGFPTPTIKWLRPSGPMPADRVTYQNHNKTLQLLKVGEEDDGEYRCLAENSLGSARHAYYVTVEAAPYWLHKPQSHLYGPGETARLDCQVQGRPQPEVTWRINGIPVEELAKDQKYRIQRGALILSNVQPSDTMVTQCEARNRHGLLLANAYIYVVQLPAKILTADNQTYMAVQGSTAYLLCKAFGAPVPSVQWLDEDGTTVLQDERFFPYANGTLGIRDLQANDTGRYFCLAANDQNNVTIMANLKVKDATQITQGPRSTIEKKGSRVTFTCQASFDPSLQPSITWRGDGRDLQELGDSDKYFIEDGRLVIHSLDYSDQGNYSCVASTELDVVESRAQLLVVGSPGPVPRLVLSDLHLLTQSQVRVSWSPAEDHNAPIEKYDIEFEDKEMAPEKWYSLGKVPGNQTSTTLKLSPYVHYTFRVTAINKYGPGEPSPVSETVVTPEAAPEKNPVDVKGEGNETTNMVITWKPLRWMDWNAPQVQYRVQWRPQGTRGPWQEQIVSDPFLVVSNTSTFVPYEIKVQAVNSQGKGPEPQVTIGYSGEDYPQAIPELEGIEILNSSAVLVKWRPVDLAQVKGHLRGYNVTYWREGSQRKHSKRHIHKDHVVVPANTTSVILSGLRPYSSYHLEVQAFNGRGSGPASEFTFSTPEGVPGHPEALHLECQSNTSLLLRWQPPLSHNGVLTGYVLSYHPLDEGGKGQLSFNLRDPELRTHNLTDLSPHLRYRFQLQATTKEGPGEAIVREGGTMALSGISDFGNISATAGENYSVVSWVPKEGQCNFRFHILFKALGEEKGGASLSPQYVSYNQSSYTQWDLQPDTDYEIHLFKERMFRHQMAVKTNGTGRVRLPPAGFATE
modifications: extracellular domain
notes: soluble L1 ectodomain isolated from ascites fluid of ovarian carcinoma patients
In the case of B1, the cell survival [10] is reported as “enhanced survival of both cell lines to a similar degree”, the cell survival [11] is reported as “enhanced survival of both cell lines to a similar degree; also recorded: only partially rescue HEK293 cells from apoptosis” and the FAK phosphorylation [12] is reported as “enhanced FAK phosphorylation”.
